Assay results as given in US20200255828A1, “METHODS AND COMPOSITIONS FOR ALTERING FUNCTION AND STRUCTURE OF CHROMATIN LOOPS AND/OR DOMAINS” (THE BROAD INSTITUTE, INC., priority 2017, published 2020).
“Also recorded” adds a separate entry of the source.

Key:
HCT-116 cells = test: Loop reformation (Hi-C APA) after Rad21 degradation and recovery without transcription, replication or ATP; type: cell-based, human; settings: Rad21 temporarily degraded and allowed to recover
From the text: Using the degron system, Applicants can directly measure the influence of cellular processes on loop formation (Vian et al, 2018). […] Applicants also tested interchromasomal cohesin-independent links requirement for ATP after cohesin degradation and observed that depletion of ATP strengthens the interactions between superenhancers (FIG. 23).

CTCF-AID cells = test: Rescue experiments in the CTCF-AID cell line (Hi-C); type: cell-based, human; settings: endogenous CTCF degraded by auxin
From the text: The protein CTCF is thought to act as an oriented brake to halt cohesin-mediated loop extrusion in one direction along the genome but not the other, but how this braking activity is mediated mechanistically is unknown. An important question regarding CTCF barrier activity is whether there is a protein domain mediating the ability to halt extrusion or whether CTCF halts cohesin via steric occlusion. As a proof of principle, Applicants introduced either (i) WT CTCF, (ii) CTCF lacking its N terminal domain, or (iii) CTCF lacking its C terminal domain by transfection into CTCF-AID cells. […] Applicants can systematically identify the key residues in the N terminus of CTCF that are necessary for barrier activity by transfecting plasmids expressing mutant CTCF proteins with tiled mutations on the N terminus and assaying via Hi-C after degradation of endogenous CTCF. Similarly, Applicants can develop HCT-116 degron lines for SA1, SA2, and SA1+SA2 double degron (the cohesin ring co-factors that are thought to mediate the interaction between cohesin and CTCF). By depleting endogenous SA protein, introducing SA proteins with tiled mutations across various domains, and assaying looping via Hi-C, Applicants can similarly identify the residues on the cohesin complex required for interaction with CTCF. […]

## CN1CC[C@H](c2c(O)cc(O)c3c(=O)cc(-c4ccccc4Cl)oc23)[C@H](O)C1 [flavopiridol]
HCT-116 cells
  effect on loop formation during Rad21 recovery: does not block loop formation; also recorded: loop reformation occurs without issue

## CC[C@H]1/C=C/C=C/C[C@@H](C)[C@H](O)[C@@](C)(O)C(=O)[C@@H](C)[C@H](O)[C@@H](C)C(=O)[C@@H](C)[C@H](O)[C@@H](C)/C=C/C(=O)O[C@@H]2[C@H](C)[C@H](CC1)O[C@]1(CC[C@H](C)[C@H](C[C@@H](C)O)O1)[C@H]2C [oligomycin]
HCT-116 cells
  effect on loop formation during Rad21 recovery: does block loop formation; also recorded: loop formation requires ATP

## Cc1cn([C@H]2C[C@H](O)[C@@H](CO)O2)c(=O)[nH]c1=O [thymidine]
HCT-116 cells
  effect on loop formation during Rad21 recovery: does not block loop formation; also recorded: loop reformation occurs without issue

B1: WT CTCF: wild-type CTCF introduced by transfection into CTCF-AID cells (protein)
chain: MEGDAVEAIVEESETFIKGKERKTYQRRREGGQEEDACHLPQNQTDGGEVVQDVNSSVQMVMMEQLDPTLLQMKTEVMEGTVAPEAEAAVDDTQIITLQVVNMEEQPINIGELQLVQVPVPVTVPVATTSVEELQGAYENEVSKEGLAESEPMICHTLPLPEGFQVVKVGANGEVETLEQGELPPQEDPSWQKDPDYQPPAKKTKKTKKSKLRYTEEGKDVDVSVYDFEEEQQEGLLSEVNAEKVVGNMKPPKPTKIKKKGVKKTFQCELCSYTCPRRSNLDRHMKSHTDERPHKCHLCGRAFRTVTLLRNHLNTHTGTRPHKCPDCDMAFVTSGELVRHRRYKHTHEKPFKCSMCDYASVEVSKLKRHIRSHTGERPFQCSLCSYASRDTYKLKRHMRTHSGEKPYECYICHARFTQSGTMKMHILQKHTENVAKFHCPHCDTVIARKSDLGVHLRKQHSYIEQGKKCRYCDAVFHERYALIQHQKSHKNEKRFKCDQCDYACRQERHMIMHKRTHTGEKPYACSHCDKTFRQKQLLDMHFKRYHDPNFVPAAFVCSKCGKTFTRRNTMARHADNCAGPDGVEGENGGETKKSKRGRKRKMRSKKEDSSDSENAEPDLDDNEDEEEPAVEIEPEPEPQPVTPAPPPAKKRRGRPPGRTNQPKQNQPTAIIQVEDQNTGAIENIIVEVKKEPDAEPAEGEEEEAQPAATDAPNGDLTPEMILSMMDR
CTCF-AID cells
  rescue of the looping phenotype: rescue the looping phenotype
